Results published in patent US20070004653A1, “Stable lyophilized anthracycline glycosides” (priority 2005, published 2007).

Experiments:
[1] = Stability tests of lyophilized Idarubicin HCl, not stabilized and stabilized: pH, aglycone, bis-anhydro before and after lyophilization; assay type: physicochemical
Experimental: Starting product was idarubicin hydrochloride, 1% w/v in water, containing amount of free HCl. No additional chemicals were added. Most of the solution was frozen and lyophilized. […]
To obtain idarubicin hydrochloride containing a trace amount of free HCl, idarubicin HCl was slurried in 20 volumes of a mixture of dichloromethane:methanol (90:10) containing a 1% molar amount of HCl with respect to the molar amount of idarubicin hydrochloride. The slurry was filtered off and washed with the same solvent mixture and then dried under vacuum at room temperature, until constant weight.
Starting product was idarubicin hydrochloride: 1% w/v in water, containing a trace amount of free HCl. 1.5% mol of both NH4OAc and AcOH with respect to idarubicin hydrochloride were added. Most of the solution was frozen and lyophilized. […]
Starting product was idarubicin hydrochloride, 1% w/v in water, containing a trace amount of free HCl. The solution was first decolorized with charcoal and 1.5% mol of both NH4OAc and AcOH with respect to idarubicin hydrochloride were added. Most of the solution was frozen and lyophilized. […]
Starting product was idarubicin hydrochloride, 1% w/v in water, containing a trace amount of free HCl. 0.65% mol of both NH4OAc and AcOH (0.1% and 0.08% w/w, respectively) with respect to idarubicin hydrochloride were added. Most of the solution was frozen and lyophilized. […]
Starting product was idarubicin hydrochloride, 1% w/v in water, containing a trace amount of free HCl. 0.1% w/w of NH4HCO3 and gaseous CO2 were added. Most of the solution was frozen and lyophilized. […]
Starting product was idarubicin hydrochloride, 1% w/v in water, containing a trace amount of free HCl. 0.1% w/w of NaHCO3 and gaseous CO2 were added. Most of the solution was frozen and lyophilized. […]
Starting product was idarubicin hydrochloride, 1% w/v in water, containing a trace amount of free HCl. 1.0% molar amount of AMBERLITE® IRA-67 (1.6 M) acetate and 0.8% molar amount of acetic acid with respect to idarubicin hydrochloride were added. The solution was filtered through a 0.4 micron membrane then it was frozen and lyophilized.

[2] = Preparation of stable lyophilized anthracycline glycoside hydrochlorides: aglycone and dimer in the lyophilized product; assay type: physicochemical; conditions: frozen and lyophilized
Experimental: (§1) Idarubicin hydrochloride (500 mg) was dissolved in water (50 ml) and acetic acid and ammonium acetate (both 1.5% molar amount with respect to the molar amount of idarubicin hydrochloride) were added. The solution was frozen and lyophilized.
as §1, with “Charcoal was then added (100 g) and the solution was stirred for two hours. After that, the suspension was filtered through 0.4 micron membrane and then the” for “The”
Doxorubicin hydrochloride (500 mg) was dissolved in water (20 ml) and the pH corrected to 3.5 with acetic acid at room temperature. The solution was then warmed to 60° C. for 2 hours and then ammonium acetate (1.5% molar amount with respect to the molar amount of doxorubicin hydrochloride) was added. Then the solution was quickly frozen and lyophilized.
(§2) Epirubicin hydrochloride (1550 mg) was dissolved in water (100 ml) and the pH corrected to 3.2-3.8 with hydrochloric acid at room temperature. The solution was then warmed to 60° C.-65° C. for 1 hours and then the solution was cooled to 50-60° C. At the same time, the pH was corrected to 4.5-5.0 with sodium hydroxide. Then the solution was quickly frozen and lyophilized.
Idarubicin hydrochloride (5.0 g) was dissolved in water (500 ml). Then 58 microlitres of AMBERLITE® IRA-67 (1.6M) acetate (meaning 1.0% molar amount with respect to the molar amount of idarubicin hydrochloride) and 4.5 mg of acetic acid (meaning 0.8% molar amount with respect to the molar amount of idarubicin hydrochloride) were added. The suspension was slurried for two hours, then filtered, frozen and lyophilized.
Doxorubicin hydrochloride (5.0 g) was dissolved in water (200 ml) and the pH corrected to 4.6-4.8 with IN hydrochloric acid at room temperature. Then 80 microlitres of AMBERLITE® IRA-67 (1.6M) acetate (meaning 1.5% molar amount with respect to the molar amount of doxorubicin hydrochloride) was added. The solution was then filtered, frozen and lyophilized.
as §2, with “was” for “was then”, “hour” for “hours”, “AMBERLITE® IRA-67 free base.” for “sodium hydroxide.”, “filtered, frozen,” for “frozen”

[3] = Example 16: solution to load into lyophilizer, no additional chemicals
[4] = Example 26: solution + 1.5% mol of both NH4OAc/AcOH to load into lyophilizer
[5] = Example 27: solution decolorized with charcoal + 1.5% mol of both NH4OAc/AcOH to load into lyophilizer
[6] = Example 28: solution + 0.65% mol of both NH4OAc/AcOH to load into lyophilizer
[7] = Example 29: lyophilized product obtained (NH4HCO3 + CO2)
[8] = Example 29: solution + 0.1% w/w of NH4HCO3 and gaseous CO2 to saturation, to load into lyophilizer
[9] = Example 30: lyophilized product obtained (NaHCO3 + CO2)
[10] = Example 30: solution + 0.1% w/w of NaHCO3 and gaseous CO2 to saturation, to load into lyophilizer
[11] = Example 31: solution + 1.0% mol of IRA-67 acetate and 0.8% mol of acetic acid, slurried 2 hr, filtered, loaded into lyophilizer

## CC(=O)[C@]1(O)Cc2c(O)c3c(c(O)c2[C@@H](O[C@H]2C[C@@H](N)[C@H](O)C(C)O2)C1)C(=O)c1ccccc1C3=O.Cl (some centres unmarked) [Idarubicin HCl, Idarubicin hydrochloride]
[1]; Example 16: lyophilized product obtained, not stabilized
  % aglycone: 0.29%
[1]; [3]
  % aglycone: 0.14%
  pH of the solution as 1% w/v: 5.36
  pH of the solution diluted to 0.5% w/v: 6.32
[1]; Example 26: lyophilized product obtained (1.5% mol of both NH4OAc/AcOH)
  % aglycone: 0.16%
[1]; [4]
  % aglycone: 0.14%
  pH of the solution as 1% w/v: 5.14
  pH of the solution diluted to 0.5% w/v: 5.26
[1]; Example 27: lyophilized product obtained (charcoal + 1.5% mol of both NH4OAc/AcOH)
  % aglycone: 0.04%
[1]; [5]
  % aglycone: 0.03%
  pH of the solution as 1% w/v: 5.85
  pH of the solution diluted to 0.5% w/v: 6.05
[1]; Example 28: lyophilized product obtained (0.65% mol of both NH4OAc/AcOH)
  % aglycone: 0.19%
[1]; [6]
  % aglycone: 0.15%
  pH of the solution diluted to 0.5% w/v: 5.72
[1]; [7]
  % aglycone: 0.16%
  % bis-anhydro: 0.05%
[1]; [8]
  % aglycone: 0.15%
  % bis-anhydro: 0.06%
  pH of the solution diluted to 0.5% w/v: 5.73
[1]; [9]
  % aglycone: 0.16%
  % bis-anhydro: 0.05%
[1]; [10]
  % aglycone: 0.15%
  % bis-anhydro: 0.05%
  pH of the solution diluted to 0.5% w/v: 6.14
[1]; Example 31: lyophilized product obtained (IRA-67 acetate + acetic acid)
  % aglycone: 0.18%
[1]; [11]
  % aglycone: 0.15%
  pH of the solution after dilution to 0.5% w/v: 5.82
[1]; starting solid idarubicin HCl containing a trace amount of HCl
  % aglycone: 0.14%
[2]; Example 38: acetic acid and ammonium acetate, both 1.5% molar
  aglycone contained in lyophilized product: 0.12%
[2]; Example 39: acetic acid and ammonium acetate, both 1.5% molar, charcoal, filtered
  aglycone contained in lyophilized product: 0.02%
[2]; Example 42: AMBERLITE IRA-67 acetate 1.0% molar and acetic acid 0.8% molar, slurried two hours, filtered
  aglycone contained in lyophilized product: 0.09%
